This is an account of results in patent publication US9200269B2, “β-glucuronidase inhibitor” (priority 2007, dated 2015).

Assay [1] has as its target T1, β-glucuronidase Type VII-A derived from Escherichia coli (Escherichia coli, UniProt P05804).
T1 construct: purchased Sigma-Aldrich Corporation
Put plainly: Inhibition of β-glucuronidase activity (PNPG substrate, absorbance at 400 nm). In kind it is biochemical. Particulars: 1.6 units/mL enzyme, 37° C., 2 hours, pH 6.8; for Inhibition rate (%) Concentration 0.001%: 0.001 wt % in reaction solution; for inhibition at 0.01 wt % / Inhibition rate (%) Concentration 0.01%: 0.01 wt % in reaction solution; for inhibition at 0.01 wt %: read-out: Inhibition rate (%) Concentration 0.01%; for inhibition at 0.1 wt % / Inhibition rate (%) Concentration 0.1%: 0.1 wt % in reaction solution; for inhibition at 0.1 wt %: read-out: Inhibition rate (%) Concentration 0.1%. The procedure: 100 μL of a 2 mM PNPG aqueous solution, 40 μL of a 0.5 M phosphate buffer (pH 6.8), 38 μL of ion exchanged water and 2 μL of a 10 or 1 wt % dipropylene glycol (DPG) solution of various compounds or plant extracts were mixed in a bottle γ-ray sterilized in advance, and subsequently 20 μL of a β-glucuronidase aqueous solution adjusted to 16 units/mL was added, in order to allow the enzyme to react in a thermostat bath at 37° C. for 2 hours. Further, in the case of some of compounds, in addition to the above steps, the same experiment was performed using a 0.1 wt % DPG solution as well. As a result, the concentrations of the test compounds and plant extracts in the reaction solution were adjusted to 0.1, 0.01 and 0.001 wt %, respectively. Further, a product prepared by adding DPG in place of the above-mentioned compounds and plant extracts was used as a control, and a product prepared by adding ion exchanged water in place of an enzyme solution was used as a blank for each sample and control, and the respective products were allowed to react for 2 hours in the same manner. It should be noted that the plant extract sample was used as a solvent extract.
The above-mentioned reaction solution was diluted with a 0.2 M glycine buffer (pH 10.4) and measured for its absorbance at a wavelength of 400 nm. The relative activity inhibition rate of a β-glucuronidase was determined by using the obtained measurement value in accordance with the following equation. Absorbance change of control=Absorbance of control−Absorbance of blank for each control Absorbance change of sample=Absorbance of sample−Absorbance of blank for each sample Activity inhibition rate (%)=[(Absorbance change of control−Absorbance change of sample)/Absorbance change of control]×100

Assay [2] in a line: Urine catching pad urine addition test, urine odor intensity. The arrangement: species or system human. Conditions: six-level score 0 to 5, average of five panelists; inhibitor 1 wt. % of water-absorbent polymer; 30 g human urine, 30° C. The protocol:
Sensory evaluation of odor was performed by six panelists, the evaluation was based on a six-level odor intensity indication method in which the odor intensity was indicated with an evaluation score of 0 to 5. In the evaluation score, “0” indicates no odor, “1” indicates odor which can be slightly perceived (detection threshold), “2” indicates odor which can be perceived to be urine odor but is weak (perception threshold), “3” indicates odor which can be easily perceived to be urine odor, “4” indicates strong urine odor, and “5” indicates extreme urine odor. The odor intensity was determined at an interval of 0.5.
Specifically, the urine catching pad was prepared by replacing only a water-absorbent polymer in the commercially available urine catching pad “Relief urine catching pad safe absorption (Anshin-Kyusyu)” (manufactured by Kao Corporation) with a water-absorbent polymer wherein the β-glucuronidase inhibitor of the present invention was added. The added amount of the inhibitor to the water-absorbent polymer was 1 wt. % with respect to the water-absorbent polymer, and was equivalent to 1.5 g/m^2 with respect to the urine catching pad.
A urine addition test was performed by using test pieces having dimensions of 19 cm by 7 cm being cut out from the urine catching pad, and using a test piece containing no β-glucuronidase inhibitor as a blank. The test was performed as follows: 30 g of human urine (a mixture of urine from five humans) were added to these test pieces cut out from the urine catching pad, and the urine odor intensity after 1 hour, after 24 hours, and after 48 hours under preservation at 30° C. was evaluated by five panelists based on the six-level odor intensity indication method as described in the item (2) of Reference Example 2.

T1 sequence (P05804 whole entry): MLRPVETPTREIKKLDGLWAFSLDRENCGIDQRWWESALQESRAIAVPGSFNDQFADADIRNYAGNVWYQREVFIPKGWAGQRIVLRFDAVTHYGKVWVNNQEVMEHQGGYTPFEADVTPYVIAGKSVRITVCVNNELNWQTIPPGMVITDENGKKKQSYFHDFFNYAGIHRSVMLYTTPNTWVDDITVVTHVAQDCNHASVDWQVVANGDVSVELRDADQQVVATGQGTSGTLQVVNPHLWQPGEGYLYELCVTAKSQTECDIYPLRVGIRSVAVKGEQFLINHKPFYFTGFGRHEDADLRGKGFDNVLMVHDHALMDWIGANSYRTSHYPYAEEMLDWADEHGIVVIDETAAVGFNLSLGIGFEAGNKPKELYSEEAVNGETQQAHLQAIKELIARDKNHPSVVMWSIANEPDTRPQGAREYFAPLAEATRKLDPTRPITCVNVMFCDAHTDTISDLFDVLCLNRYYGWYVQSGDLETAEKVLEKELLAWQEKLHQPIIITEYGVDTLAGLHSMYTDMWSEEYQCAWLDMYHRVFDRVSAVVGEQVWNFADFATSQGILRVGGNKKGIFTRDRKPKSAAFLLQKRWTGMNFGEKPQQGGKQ

For `O=C(O)[C@@H](O)[C@H]1OC(=O)[C@H](O)[C@H]1O` [D-Glucaro-1,4-lactone, D-glucaro-1,4-lactone, reference compound], in assay [1], the “Inhibition rate (%) Concentration 0.001%” value amounted to 31.1%, the inhibition at 0.01 wt % was determined as 80.4% and the inhibition at 0.1 wt % amounted to 98%. In assay [2], the “Urine odor intensity After 1 hour” value is 1.6, the “Urine odor intensity After 24 hours” value turned out to be 1.9 and the “Urine odor intensity After 48 hours” value turned out to be 3.3.

With `CC(=O)C1(C)CC2=C(CCCC2(C)C)CC1C` (centres unmarked) [Iso E Super, 1,2,3,4,5,6,7,8-octahydro-2,3,8,8-tetramethyl-2-acetonaphthone], in assay [1], the “Inhibition rate (%) Concentration 0.01%” value is 63.1% and the “Inhibition rate (%) Concentration 0.1%” value turned out to be 85.9%.

For the compound `CC1=CC(C)C(C=O)CC1` (centres unmarked) [Ligustral, dimethyltetrahydrobenzaldehyde], in assay [1], the “Inhibition rate (%) Concentration 0.01%” value turned out to be 30.1% and the “Inhibition rate (%) Concentration 0.1%” value was 76.2%.

For the compound `CC(C=O)Cc1ccc(C(C)(C)C)cc1` (centres unmarked) [Lilial, 2-methyl-3-(4-tert-butylphenyl)-propanal], in assay [1], the inhibition at 0.01 wt % was 60.9% and the inhibition at 0.1 wt % came to 72.3%.

Take `C=CC(C)(O)CCC=C(C)C` (centres unmarked) [Linalool, linalool]: in assay [1], the inhibition at 0.01 wt % worked out at 31.7% and the inhibition at 0.1 wt % worked out at 91%.

On to `C=CC(C)(CCC=C(C)C)OC(C)=O` (centres unmarked) [Linalyl acetate, linalyl acetate], for which, in assay [1], the inhibition at 0.01 wt % was determined as 62.6% and the inhibition at 0.1 wt % came out at 95.8%.

For `CC(C)(O)CCCC1=CCC(C=O)CC1` (centres unmarked) [Lyral, 4-(4-hydroxy-4-methylpentyl)-3-cyclohexene-1-carboxyaldehyde], in assay [1], the inhibition at 0.01 wt % was 51.6% and the inhibition at 0.1 wt % worked out at 94.4%.

Turning to `COC1(C)CCCCCCCCCCC1` [Madrox, 1-methyl-1-methoxycyclododecane], in assay [1], the inhibition at 0.01 wt % amounted to 60.9% and the inhibition at 0.1 wt % was found to be 92.4%.

Turning to `CCCCCCC#CC(=O)OC` [Methyl-2-nonynoate, methyl-2-nonynoate], in assay [1], the inhibition at 0.01 wt % is 95.3% and the inhibition at 0.1 wt % amounted to 98.2%.

Consider `CC(C)=CCCC1=CCC(C=O)CC1` (centres unmarked) [Myrac aldehyde, 4-(4-methyl-3-pentenyl)-3-cyclohexene-1-carboxyaldehyde], for which, in assay [1], the “Inhibition rate (%) Concentration 0.01%” value amounted to 49.7% and the “Inhibition rate (%) Concentration 0.1%” value stood at 63.7%.

On to `CC(C)=CCC/C(C)=C\CO` [Nerol, nerol], for which, in assay [1], the inhibition at 0.01 wt % turned out to be 44% and the inhibition at 0.1 wt % was found to be 85.7%.

For the compound `C=C(C)[C@@H]1CCC2=CC(=O)C[C@@H](C)[C@]2(C)C1` [Nootkatone, nootkatone], in assay [1], the inhibition at 0.01 wt % was 80.8% and the inhibition at 0.1 wt % was 95.2%.

Consider `COC1CCCCCCCCCCC1` [Palisandin, 1-methoxycyclododecane], for which, in assay [1], the inhibition at 0.01 wt % worked out at 53.3% and the inhibition at 0.1 wt % was 85%.

For the compound `O=CCc1ccccc1` [Phenylacetaldehyde, phenylacetaldehyde], in assay [1], the inhibition at 0.01 wt % worked out at 31.9% and the inhibition at 0.1 wt % stood at 72.2%.

As for `CC(C)CCOCCc1ccccc1` [Phenylethyl isoamyl ether, phenylethyl isoamyl ether], in assay [1], the inhibition at 0.01 wt % worked out at 60.8% and the inhibition at 0.1 wt % worked out at 88.8%.

For `CC(CCO)CCc1ccccc1` (centres unmarked) [Phenylhexanol, 3-methyl-5-phenyl-1-pentanol], in assay [1], the inhibition at 0.01 wt % came to 52.1% and the inhibition at 0.1 wt % came to 61.2%.

For the compound `CC(=O)OC(C)(C)C1CC=C(C)CC1` (centres unmarked) [Terpinyl acetate, terpinyl acetate], in assay [1], the “Inhibition rate (%) Concentration 0.01%” value amounted to 65.5% and the “Inhibition rate (%) Concentration 0.1%” value is given as 94.7%.

With `COc1cc(C=O)ccc1O` [Vanillin, vanillin], in assay [1], the inhibition at 0.01 wt % was determined as 49.5% and the inhibition at 0.1 wt % is 82.1%.

For the compound `CC/C=C\CCOC(=O)c1ccccc1` [cis-3-Hexenyl benzoate, cis-3-hexenyl benzoate], in assay [1], the inhibition at 0.01 wt % came out at 45.1% and the inhibition at 0.1 wt % came to 80.6%.

Take `CC/C=C\CC1=C(C)CCC1=O` [cis-Jasmone, cis-jasmone]: in assay [1], the “Inhibition rate (%) Concentration 0.001%” value is recorded as 24.8%, the “Inhibition rate (%) Concentration 0.01%” value amounted to 77.2% and the “Inhibition rate (%) Concentration 0.1%” value was 99.2%.

For the compound `COc1ccc(C)cc1` [p-Cresyl methyl ether, p-cresyl methyl ether], in assay [1], the inhibition at 0.01 wt % was determined as 24% and the inhibition at 0.1 wt % came out at 85.9%.

Regarding `C/C=C\C(=O)C1C(C)=CCCC1(C)C` (stereo not drawn) [α-Damascone, α-damascone], in assay [1], the “Inhibition rate (%) Concentration 0.01%” value stood at 42.6% and the “Inhibition rate (%) Concentration 0.1%” value is given as 89.9%.

For `CC(=O)/C=C/C1C(C)=CCCC1(C)C` (stereo not drawn) [α-Ionone, α-ionone], in assay [1], the “Inhibition rate (%) Concentration 0.01%” value is on record as 43.3% and the “Inhibition rate (%) Concentration 0.1%” value was determined as 91.8%.

On to `CCC(=O)/C=C/C1C(C)=CCCC1(C)C` (stereo not drawn) [α-Methylionone, α-methylionone], for which, in assay [1], the “Inhibition rate (%) Concentration 0.01%” value was 57.5% and the “Inhibition rate (%) Concentration 0.1%” value is on record as 91.1%.

As to `C/C=C/C(=O)C1=C(C)CCCC1(C)C` [β-Damascone, β-damascone], in assay [1], the “Inhibition rate (%) Concentration 0.01%” value is recorded as 39.5% and the “Inhibition rate (%) Concentration 0.1%” value is on record as 77.3%.

As for `CC(=O)/C=C/C1=C(C)CCCC1(C)C` [β-Ionone, β-ionone], in assay [1], the “Inhibition rate (%) Concentration 0.01%” value was determined as 40.2% and the “Inhibition rate (%) Concentration 0.1%” value came to 81.1%.

In the case of `CC(=O)/C(C)=C/C1C(C)=CCCC1(C)C` (centres unmarked) [γ-Methylionone, γ-methylionone], in assay [1], the “Inhibition rate (%) Concentration 0.001%” value turned out to be 22.0%, the “Inhibition rate (%) Concentration 0.01%” value stood at 84.1% and the “Inhibition rate (%) Concentration 0.1%” value stood at 98.5%.

vetiverol: in assay [1], the “Inhibition rate (%) Concentration 0.01%” value is listed as 88.0% and the “Inhibition rate (%) Concentration 0.1%” value was 97.1%.
